Test results from ChEMBL document CHEMBL1201862, “PubChem BioAssay data set” (2004).
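Test compounds were applied to cells in 96-well plates for 48 hours at 5 doses. At the GI50, growth is halved.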 The source made the active and inactive calls. Cut-off read from the data, not from the text of the source: active = GI50 up to about 1.1 µM and inactive = higher. Square brackets hold non-standard residues; d marks the D form. Peptide text beside a SMILES is read from it. * marks the point of attachment. Phe(4-NO2) = N[CH](Cc1ccc([N+](=O)[O-])cc1)C(=O)O; Boc = CC(C)(C)OC(=O)*

What was measured:
Assay in all cases: DTP human tumour cell line panel, 48 h
TK-10 = tested on: TK-10
LOX IMVI = tested on: LOX IMVI
NCI-H226 = tested on: NCI-H226
A549 = tested on: A549
PC-3 = tested on: PC-3
COLO 205 = tested on: COLO 205
OVCAR-3 = tested on: OVCAR-3
SK-OV-3 = tested on: SK-OV-3
SW-620 = tested on: SW-620
KM12 = tested on: KM12
HCC 2998 = tested on: HCC 2998
HOP-62 = tested on: HOP-62
U-251 = tested on: U-251
MCF7 = tested on: MCF7
K562 = tested on: K562
SN12C = tested on: SN12C
RPMI-8226 = tested on: RPMI-8226
NCI/ADR-RES = tested on: NCI/ADR-RES
SF-268 = tested on: SF-268
UO-31 = tested on: UO-31

| Compound | GI50 (TK-10) | GI50 (LOX IMVI) | GI50 (NCI-H226) | GI50 (A549) | GI50 (PC-3) | GI50 (COLO 205) | GI50 (OVCAR-3) | GI50 (SK-OV-3) | GI50 (SW-620) | GI50 (KM12) | GI50 (HCC 2998) | GI50 (HOP-62) | GI50 (U-251) | GI50 (MCF7) | GI50 (K562) | GI50 (SN12C) | GI50 (RPMI-8226) | GI50 (NCI/ADR-RES) | GI50 (SF-268) | GI50 (UO-31) |
| --- | --- | --- | --- | --- | --- | --- | --- | --- | --- | --- | --- | --- | --- | --- | --- | --- | --- | --- | --- | --- |
| CO[C@]12C#CC=CC#C[C@@H](O)[C@]3(CCC1)O[C@@]23c1cccc(O)c1 | > 100 µM (inactive) | > 100 µM (inactive) | > 100 µM (inactive) | > 100 µM (inactive) | > 100 µM (inactive) | > 100 µM (inactive) | > 100 µM (inactive) | > 100 µM (inactive) | > 100 µM (inactive) | > 100 µM (inactive) | > 100 µM (inactive) | 79.3 µM (inactive) | > 100 µM (inactive) | > 100 µM (inactive) | 97.3 µM (inactive) | > 100 µM (inactive) | > 100 µM (inactive) | > 100 µM (inactive) | > 100 µM (inactive) | > 100 µM (inactive) |
| CC1=CC(=O)/C(=C/n2c(=S)[nH]c3ccccc32)C(=O)O1 | > 100 µM (inactive) | > 100 µM (inactive) | > 100 µM (inactive) | > 100 µM (inactive) | > 100 µM (inactive) | > 100 µM (inactive) | > 100 µM (inactive) | > 100 µM (inactive) | > 100 µM (inactive) | > 100 µM (inactive) | > 100 µM (inactive) | > 100 µM (inactive) | > 100 µM (inactive) | > 100 µM (inactive) | > 100 µM (inactive) | > 100 µM (inactive) | > 100 µM (inactive) | > 100 µM (inactive) | > 100 µM (inactive) | > 100 µM (inactive) |
| COc1cccc2c1C(=O)C(=O)c1c-2oc(=O)c2cc(C)cc(OC)c12 | > 75 µM (inactive) | 13.6 µM (inactive) | 72.8 µM (inactive) | > 75 µM (inactive) | 37.8 µM (inactive) | 67 µM (inactive) | 15.7 µM (inactive) | 58.5 µM (inactive) | 29.4 µM (inactive) | 21.1 µM (inactive) | 14.5 µM (inactive) | 15.9 µM (inactive) | 12.8 µM (inactive) | 23.7 µM (inactive) | 22.3 µM (inactive) | 53.8 µM (inactive) | 20.6 µM (inactive) | 15.8 µM (inactive) | 17.3 µM (inactive) | 35 µM (inactive) |
| CCOC(=O)C(=CNC(=S)N/N=C1\C(=O)Nc2ccccc21)C(=O)OCC | 59.2 µM (inactive) | > 100 µM (inactive) | > 100 µM (inactive) | > 100 µM (inactive) | > 100 µM (inactive) | 99.1 µM (inactive) | 46.2 µM (inactive) | > 100 µM (inactive) | > 100 µM (inactive) | 52 µM (inactive) | > 100 µM (inactive) | > 100 µM (inactive) | > 100 µM (inactive) | 92.9 µM (inactive) | > 100 µM (inactive) | > 100 µM (inactive) | > 100 µM (inactive) | 48.2 µM (inactive) | 43.8 µM (inactive) | 29 µM (inactive) |
| Cc1cc(Cl)ccc1OCC(=O)Oc1c(Cl)c(Cl)c(Cl)c(Cl)c1Cl | 30.3 µM (inactive) | 22.5 µM (inactive) | 20.2 µM (inactive) | 25.6 µM (inactive) | 28.2 µM (inactive) | 27.8 µM (inactive) | 18.2 µM (inactive) | 27.9 µM (inactive) | 32.3 µM (inactive) | 23.2 µM (inactive) | 25.2 µM (inactive) | 21.4 µM (inactive) | 24.4 µM (inactive) | 26.8 µM (inactive) | 35.2 µM (inactive) | 25.4 µM (inactive) | 21.9 µM (inactive) | 25.4 µM (inactive) | 30.5 µM (inactive) | 17.1 µM (inactive) |
| O=[N+]([O-])C(=C1NCCN1)/C(Cl)=C(\Cl)Br | > 72.4 µM (inactive) | 15.7 µM (inactive) | > 81.8 µM (inactive) | > 100 µM (inactive) | > 59.4 µM (inactive) | 19.6 µM (inactive) | 18 µM (inactive) | > 100 µM (inactive) | 13.5 µM (inactive) | > 100 µM (inactive) | 60 µM (inactive) | > 100 µM (inactive) | 49.3 µM (inactive) | 30.3 µM (inactive) | 5.33 µM (inactive) | 41.2 µM (inactive) | 22.4 µM (inactive) | > 63.1 µM (inactive) | 35.2 µM (inactive) | 84.1 µM (inactive) |
| COP(=O)(OC)OCN(C)CC/C=C(\C)CC/C=C(\C)CCC=C(C)C | 10.3 µM (inactive) | 15.8 µM (inactive) | 15.4 µM (inactive) | 16.9 µM (inactive) | 7.57 µM (inactive) | 16.9 µM (inactive) | 15.3 µM (inactive) | 28.5 µM (inactive) | 15.6 µM (inactive) | 15.2 µM (inactive) | 11.6 µM (inactive) | 16.1 µM (inactive) | 17.7 µM (inactive) | 15.2 µM (inactive) | 6.21 µM (inactive) | 15.6 µM (inactive) | 10.6 µM (inactive) | 13 µM (inactive) | 16.4 µM (inactive) | 14.1 µM (inactive) |
| COc1cc2c(cc1OC)C(Cl)C(c1ccc(Br)cc1)=C2Cl (stereo not given) | 11.4 µM (inactive) | 9.48 µM (inactive) | 11.3 µM (inactive) | 14.1 µM (inactive) | 7.82 µM (inactive) | 14.4 µM (inactive) | 9.84 µM (inactive) | 16.1 µM (inactive) | 9.51 µM (inactive) | 16.3 µM (inactive) | 13.3 µM (inactive) | 17.9 µM (inactive) | 10.2 µM (inactive) | 7.21 µM (inactive) | 5.33 µM (inactive) | 10.6 µM (inactive) | 2.52 µM (inactive) | 10.9 µM (inactive) | 11.1 µM (inactive) | 8.65 µM (inactive) |
| CNC(=O)CCC(NC(=O)OC(C)(C)C)C(=O)NC(Cc1ccc([N+](=O)[O-])cc1)C(=O)NCC(=O)NC (stereo not given) (Boc-Glu(NHMe)-[Phe(4-NO2)]-Gly-NHMe; configuration not given here) | > 100 µM (inactive) | > 100 µM (inactive) | > 100 µM (inactive) | > 100 µM (inactive) | > 100 µM (inactive) | > 100 µM (inactive) | > 100 µM (inactive) | > 100 µM (inactive) | > 100 µM (inactive) | > 100 µM (inactive) | > 100 µM (inactive) | > 100 µM (inactive) | > 100 µM (inactive) | > 100 µM (inactive) | > 100 µM (inactive) | > 100 µM (inactive) | > 100 µM (inactive) | > 100 µM (inactive) | > 100 µM (inactive) | > 100 µM (inactive) |
| NC(=O)NC(=O)c1cccc(NC(=O)CI)c1 | < 0.0146 µM (active) | < 0.0132 µM (active) | < 0.0367 µM (active) | 0.805 µM (active) | 0.0316 µM (active) | < 0.01 µM (active) | < 0.01 µM (active) | 0.0607 µM (active) | < 0.01 µM (active) | 0.0391 µM (active) | 0.228 µM (active) | 0.103 µM (active) | 0.0291 µM (active) | < 0.01 µM (active) | < 0.01 µM (active) | < 0.0197 µM (active) | < 0.0128 µM (active) | 0.039 µM (active) | 0.0254 µM (active) | 0.162 µM (active) |
| NCCO/C=C/C(N)C(=O)O (stereo not given) [AMINOETHOXYVINYLGLYCINE] | > 100 µM (inactive) | > 100 µM (inactive) | > 100 µM (inactive) | > 100 µM (inactive) | > 100 µM (inactive) | > 100 µM (inactive) | > 100 µM (inactive) | > 100 µM (inactive) | > 100 µM (inactive) | > 100 µM (inactive) | > 100 µM (inactive) | > 100 µM (inactive) | > 100 µM (inactive) | > 100 µM (inactive) | > 100 µM (inactive) | > 100 µM (inactive) | > 100 µM (inactive) | > 100 µM (inactive) | > 100 µM (inactive) | > 100 µM (inactive) |
| OCCCCn1cc(Cn2ncc3c(SCc4ccccc4)ncnc32)nn1 | > 100 µM (inactive) | 72.4 µM (inactive) | 93.5 µM (inactive) | 42.7 µM (inactive) | 61.2 µM (inactive) | 31 µM (inactive) | 28.2 µM (inactive) | 89.1 µM (inactive) | 26.7 µM (inactive) | 26 µM (inactive) | 56.4 µM (inactive) | 44.1 µM (inactive) | 39.2 µM (inactive) | 57 µM (inactive) | 38.8 µM (inactive) | 63 µM (inactive) | 40.9 µM (inactive) | 21.6 µM (inactive) | 63.1 µM (inactive) | 31.1 µM (inactive) |
| c1ccc(CSC2(SCc3ccccc3)CCCCC2)cc1 | > 10 µM (inactive) | > 10 µM (inactive) | > 10 µM (inactive) | > 10 µM (inactive) | > 10 µM (inactive) | > 10 µM (inactive) | > 10 µM (inactive) | > 10 µM (inactive) | > 10 µM (inactive) | > 10 µM (inactive) | > 10 µM (inactive) | > 10 µM (inactive) | > 10 µM (inactive) | > 10 µM (inactive) | > 10 µM (inactive) | > 10 µM (inactive) | > 10 µM (inactive) | > 10 µM (inactive) | > 10 µM (inactive) | > 10 µM (inactive) |
| CC1(C)C(=O)C2(C#N)CCC1C2 (stereo not given) | > 100 µM (inactive) | > 100 µM (inactive) | > 100 µM (inactive) | > 100 µM (inactive) | > 100 µM (inactive) | > 100 µM (inactive) | > 100 µM (inactive) | > 100 µM (inactive) | > 100 µM (inactive) | > 100 µM (inactive) | > 100 µM (inactive) | > 100 µM (inactive) | > 100 µM (inactive) | > 100 µM (inactive) | > 100 µM (inactive) | > 100 µM (inactive) | > 76.9 µM (inactive) | > 100 µM (inactive) | > 100 µM (inactive) | > 100 µM (inactive) |
